# Data from PMC12670400, “LEKTI-Grafted Sunflower Trypsin Inhibitor: A Potential Therapeutic for Skin Diseases” (Journal of Medicinal Chemistry, 2025).
# Bridge positions count the residues as written; N and C are the ends. Peptide text beside a SMILES is read from it.
# How the values were obtained:
# [1] = system: healthy donor keratinocytes; assay: Transepithelial electrical resistance (TEER) assay, healthy donor keratinocytes; format: cell-based, human; conditions: 1 μM, 9 days, p > 0.05, n = 54
# Text: (§1) KLK5 regulates epidermal barrier homeostasis by targeting corneodesmosomal proteins involved in cell–cell adhesion, including desmoglein-1 (DSG1), desmocollin-1 (DSC1), and corneodesmosin (CDSN). Dysregulated KLK5 activity can accelerate the degradation of these adhesion molecules, leading to impaired corneocyte cohesion and disruption of the epithelial barrier. To assess whether control of KLK5 activity by lead 7 could improve barrier integrity, the resistance of epidermal sheets generated using NS and healthy donor keratinocytes was measured using a transepithelial electrical resistance (TEER) assay. Keratinocytes from NS keratinocyte and three healthy donors were seeded in 6-well plates and cultured in the medium with 1 μM of lead 7 or without. The medium was replaced every 3 days with fresh lead 7 added in the treated groups. TEER measurements were performed every other day, and cultures were maintained until TEER values reached a plateau (9 days).
# (§2) Transepithelial Electrical Resistance (TEER) assay […]
# (§3) Transepithelial electrical resistance (TEER) values in ohms (Ω) were measured using the EVOM™ Manual Resistance Meter (World Precision Instruments, cat no. EVM-MT-03-02). Background resistance was first recorded using inserts containing only medium (without cells). […]
# (§4) One-way ANOVA was used for KLK5 activity study. […] TEER study data was analysed using the Wilcoxon […]
# KLK5 = target: T1, KLK5 (Homo sapiens, UniProt Q9Y337); assay: Protease activity assay: inhibition of recombinant KLK5 (Boc-VPR-AMC substrate); format: biochemical; conditions: ratio of IC50 values
# T1 construct: purchased R&D Systems 1108-SE
# T1 sequence (Q9Y337 23-293): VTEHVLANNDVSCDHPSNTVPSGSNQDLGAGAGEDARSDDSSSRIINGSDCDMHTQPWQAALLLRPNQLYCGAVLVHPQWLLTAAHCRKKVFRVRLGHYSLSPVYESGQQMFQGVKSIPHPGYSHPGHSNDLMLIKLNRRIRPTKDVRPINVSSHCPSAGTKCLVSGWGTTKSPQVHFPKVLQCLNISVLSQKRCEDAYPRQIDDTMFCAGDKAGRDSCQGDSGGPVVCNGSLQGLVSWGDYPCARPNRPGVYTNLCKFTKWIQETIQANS
# Protocol: Inhibitory activity against KLK5 was evaluated using the fluorogenic substrate Boc-VPR-AMC for KLK5 (Table ). […] The P1–P1′ reactive site (Arg5 to Ser6) is critical for inhibitor binding, with the P1′ position contributing up to 50% of the total association energy. , The conserved serine at P1′ in Bowman-Birk inhibitors (BBIs) is essential for function. […] Preservation of serine in the P1′ position restored inhibitory activity seen in 5 and 6. Preserving the native serine restored efficacy to the nanomolar range (5: 31 ± 7 nM; 6: 114 ± 11 nM).
# Methods for biological experiment
# SFTI analogues were created by individual amino acid substitutions in PYMOL (Python Molecular Graphics System) using the existing solution NMR structure of native SFTI - 1 (1JBL) found in the RCSB (Research Collaboratory for Structural Bioinformatics) database. Residues of 2 were mutated as follows: L5R, I10H, and F12W with conserved SFTI-1 backbone structure. Other SFTI based analogues were further modified using PYMOL. Currently, there are no SFTI-1 and Kallikrein 5 co-crystal structures found in the RCSB database. Superimposing the existing crystal structure of SFTI-1 and Trypsin complex (4XOJ) with Kallikrein 5 crystal structure (2PSX) was performed with PYMOL. Ab-initio docking between KLK5 and 2 were performed with HADDOCK 2.4 1, 2, with binding active site parameter set to Arg2, Cys3, Thr4, Arg5, Ser6 for 2 and Ser195, His57, and Asp102 for KLK5 catalytic triad. PRODIGY 3-5, set at 25 °C, was used to predict dissociation constant and binding interactions of docked clusters. Structural visualization and alignment were performed with PYMOL 6, and comparative sequence analysis was performed with MEGA11 7.
# A fluorescence spectrometer using SpectraMax® i3x plate reader (Molecular Devices, United States) was used to measure the relative fluorescence unit (RFU) on a 96-well black microplate (Grenier Bio-one, cat no. 655074). The wavelengths were set to 360/460 nm (excitation/emission) for the substrate Boc-VPR-AMC (Bachem AG, cat no. 4003460) and 320/405nm for the substrate Mca-RPKPVE-Nval-WRK(Dnp)-NH2 Fluorogenic MMP Substrate (R&D Systems Biotechne, cat no.ES002). The Boc-VPR-AMC stock solution was prepared by dissolving the solid form in dimethyl sulfoxide to 100 mM. Mca-RPKPVE-Nval-WRK(Dnp)-NH2 fluorogenic MMP Substrate is supplied as stock solution at 10.0 mg/mL in dimethyl sulfoxide. Boc-VPR-AMC was used as a substrate for KLK5, 8 and 14. Mca-RPKPVE-Nval-WRK(Dnp)-NH2 was used as a substrate for KLK7. The ligand-only solution serves as a negative control (minimum RFU, 100% inhibition), and enzyme-only was served as positive (maximum RFU, 0% inhibition). The activities of proteases were measured and readout against the standard curve made in serial dilutions of tested recombinant KLKs, ranging from 0nM to 60nM. Each assay was done in triplicates and repeated at least for three times […]
# Assessment of analogue mediated inhibition of KLK5, KLK7, KLK8, and KLK14 […]
# Recombinant KLK5 (R&D Systems, cat no. 1108-SE) was diluted to a final concentration of 10 nM in 1X PBS (pH 8.0). KLK5 was pre -incubated on ice for 1 hour with serial dilutions of SFTI-derived analogues to assess inhibitory activity. After incubation, 20 µL of each mixture was transferred to we lls of a 96-well microplate in triplicates. The enzymatic reaction was initiated by adding 100 µL of Boc -VPR-AMC substrate (final concentration 100 µM) to each well. Fluorescence (RFU) was measured using a SpectraMax® i3x plate reader with chamber temperature maintained at 37°C. Readings were started at 0 minutes (baseline) and another […]
# Recombinant KLK7 (R&D Systems , cat no. 2624-SE) and KLK14 (R&D Systems, cat no. 2664-SE) were activated by adding 1 mM CaCl ₂ 0.05% v/v Brij-35 (Sigma, cat no. […]
# incubated at 37°C for 1 hour. Reactions were stopped by adding EDTA to a final concentration of 50 mM (Sigma, cat no. EDS-100G) KLK8 (catalytic domain only; R&D Systems, cat no. 2025-SE-010) was activated separately with 11 nM lysyl […]
# NS keratinocytes = assay: Transepithelial electrical resistance (TEER) assay, NS keratinocytes; format: cell-based, human; conditions: 1 μM, 9 days, p < 0.05, n = 18
# Text: as §1, §2, §3, §4
structure (smiles),measurement,setting,value
C[C@@H](O)[C@@H]1NC(=O)[C@@H]2CSSC[C@H](NC(=O)[C@H](CCC(=O)O)NC(=O)[C@@H]3CCCN3C(=O)[C@@H]3CCCN3C(=O)[C@H](CC(N)=O)NC(=O)[C@H](CO)NC(=O)[C@H](CCCNC(=N)N)NC1=O)C(=O)N[C@@H](Cc1c[nH]c3ccccc13)C(=O)N1CCC[C@H]1C(=O)N[C@@H](CC(N)=O)C(=O)NCC(=O)N[C@@H](Cc1ccccc1)C(=O)N2 [compound 7] (cyclo(GFCTRSNPPECWPN); disulfide 3-11),"TEER, treated versus untreated healthy donor keratinocytes",[1],no differences
same,increase in KLK5 inhibitory potency (IC50) compared to 2,KLK5,4 fold
same,increase in KLK5 inhibitory potency (IC50) relative to 1,KLK5,16 fold
same,"TEER, treated versus untreated NS keratinocytes",NS keratinocytes,obvious increase in TEER values
